# Laboratory results as given in BindingDB's records for doi:10.1021/jm00174a017 (Alter, 1991).
# Experiment: Tested for inhibition of [3H]PAF binding to rabbit Platelet activating factor receptor
row,Compound,Ki [nM]
1,CCOC(=O)C1C(C)=NC(C)=C(C(=O)OCCSCC)C1C (stereo not given),1000
2,COC(=O)C1C(C)=NC(C)=C(C(=O)OCCSc2ccccc2)C1C (stereo not given),15
3,COCCOC(=O)C1C(C)=NC(C)=C(C(=O)OCCSC)C1C (stereo not given),4410
4,CCOC(=O)C1C(C)=NC(C)=C(C(=O)OCCSc2ccccc2)C1C (stereo not given),69
5,CCOC(=O)C1C(C)=NC(C)=C(C(=O)OCCSC)C1C (stereo not given),1040
6,CCSCCOC(=O)C1=C(C)N=C(C)C(C(=O)OC)C1C (stereo not given),505
7,CC1=NC(C)=C(C(=O)OCCSc2ccccc2)C(C)C1C(=O)OCC1CCCO1 (stereo not given),2090
8,CCOC(=O)C1C(C)=NC(C)=C(C(=O)OCCSC)C1CC (stereo not given),1010
9,CC1=NC(C)=C(C(=O)OCCSc2ccccc2)C(C)C1C(=O)OC(C)C (stereo not given),913
10,COC(=O)C1C(C)=NC(C)=C(C(=O)OCCSC)C1C (stereo not given),603
